These results are taken from patent EP0129499B1, “13-Alpha-alkyl gonanes, their preparation and pharmaceutical compositions containing them” (SCHERING AKTIENGESELLSCHAFT, priority 1983, dated 1984).

Test [1] relates to weiblichen Ratten. The test is described as follows: Abortive effect in an early phase post nidationem (Experiment I), treatment d 5-7 p.c., s.c. Format: in vivo. The note with it: frühgravide Ratte; for Abortrate: Dosierungen ≧ 1,0 mg/d, absence of implants at d 9 p.c. counted as abortion. The source says:
(§1) Zur Kennzeichnung der antigestagenen Wirkung der erfindungsgemässen Verbindungen wurde die abortive Wirkung in einer frühen Phase post nidationem (Experiment I) und in einer fortgeschrittenen Phase post nidationem (Experiment II) untersucht.
(§2) Die Versuche wurden an weiblichen Ratten im Gewicht von ca. 200 g durchgeführt. Nach erfolgter Anpaarung wurde der Schwangerschaftsbeginn durch Nachweis von Spermien in Vaginalabstrichen gesichert. Der Tag des Spermiennachweises gilt als Tag 1 der Gravidität (= d 1 p.c.).
(§3) Die Behandlung der Tiere mit der jeweils zu testenden Substanz bzw. dem Lösungsmittel erfolgte nach der Nidation der Blastocysten von d 5 p.c. bis d 7 p.c. (Experiment I) bzw. d 13 p.c. bis d 15 p.c. (Experiment II). An d 9 p.c. bzw. d 17 p.c. wurden die Tiere getötet und die Uteri auf Implantate und Resorptionsstellen hin untersucht. Von allen Uteri wurden Fotos angefertigt. Das Fehlen von Implantaten wurde als Abort gewertet.
(§4) Als Antigestagene wurden untersucht: • A: 11β-(4-Dimethylaminophenyl)-17β-hydroxy- 17a-propinyl-4,9-estradien-3-on (Referenzsubstanz). • B: 11 β-(4-Dimethylaminophenyl)-17β-hydroxy-17a- (3-hydroxypropyl)-13a-methyl-4,9-go- nadien-3-on (gemäss Erfindung). • C: 11β-(4-Dimethylaminophenyl)-17α-hydroxy-17ß- (3-hydroxypropyl)-13a-methyl-4,9-go- nadien-3-on (gemäss Erfindung).
Die Testsubstanzen wurden in einem Benzylbenzoat-Rizinusöl-Gemisch (Verhältnis 1:4) gelöst. Das Vehikelvolumen pro Einzeldosis betrug 0,2 ml. Die Behandlung erfolgte subcutan (s.c.). [drawing 1] worin [drawing 2] mit R^1 und R" in der Bedeutung von Wasserstoff oder Alkyl mit 1 bis 4 Kohlenstoffatomen oder R^I und R" unter Einschluss von N in der Bedeutung eines gesättigten 5- oder 6-gliedrigen Ringes, wobei im Ring ausser N noch ein weiteres Heteroatom wie 0, N, S enthalten sein kann, sowie die entsprechenden tertiären N-Oxide und die Säureadditionssalze, • -OR^III mit R"' in der Bedeutung von Methyl, Ethyl, Propyl, Methoxyphenyl, Allyl oder β-Dimethylaminoethyl, • R^2 ein Wasserstoffatom, eine Methyl- oder Ethylgruppe, • R^3-(CH2)n-CH3 mit n=0-4, • -(CH2)n-CH2-O(S)R^IV mit n=0-4 und R^IV in der Bedeutung von Wasserstoff oder Alkyl mit 1 bis 4 Kohlenstoffatomen, • -CH=CH-(CH2)n-OR^V mit n=1-4 und R^V in der Bedeutung von Wasserstoff, Alkyl oder Alkanoyl mit jeweils 1 bis 4 Kohlenstoffatomen, • -C≡C-X mit X in der Bedeutung von Wasserstoff, Alkyl mit 1 bis 4 Kohlenstoffatomen oder Halogen, • -(CH2)n-CH2CN mit n=0-3 oder [drawing 3] Y mit Y in der Bedeutung von Wasserstoff oder OR^v mit R^V in der oben angegebenen Bedeutung, • R^4 Hydroxy, Alkyloxy oder Alkanoyloxy mit jeweils 1 bis 4 Kohlenstoffatomen oder R^3/R4 [drawing 4] wobei R^3 in a-Stellung und R^4 in β-Stellung oder R^3 in β-Stellung und R^4 in a-Stellung zum Steroidgerüst stehen, und • R^5 ein Wasserstoffatom oder eine a- oder β-ständige Alkylgruppe mit 1 bis 4 Kohlenstoffatomen bedeuten. […]

Test [2] concerns weiblichen Ratten. The test is described as follows: Abortive effect in an advanced phase post nidationem (Experiment II), treatment d 13-15 p.c., s.c. Format: in vivo. The note with it: 3-day s.c. administration of 3,0 mg/d, rat.
From the text: as §1, §2, §3, §4
Die Testsubstanzen wurden in einem Benzylbenzoat-Rizinusöl-Gemisch (Verhältnis 1:4) gelöst. Das Vehikelvolumen pro Einzeldosis betrug 0,2 ml. Die Behandlung erfolgte subcutan (s.c.). […]

Turning to `CC#C[C@]1(O)CC[C@H]2[C@@H]3CCC4=CC(=O)CCC4=C3[C@@H](c3ccc(N(C)C)cc3)C[C@@]21C` [A, 11β-(4-Dimethylaminophenyl)-17β-hydroxy-17a-propinyl-4,9-estradien-3-on, reference compound], in test [1], the “Dosierung für voll abortive / maximale abortauslösende (antigestagene) Wirkung” value was > 3,0 mg/d. Further, the “Prozentsatz kompletter Aborte” value in test [2] is reported as 3,5%.
In the case of `CN(C)c1ccc([C@H]2C[C@]3(C)[C@@H](CC[C@@]3(O)CCCO)[C@@H]3CCC4=CC(=O)CCC4=C32)cc1` [B, 11 β-(4-Dimethylaminophenyl)-17β-hydroxy-17a-(3-hydroxypropyl)-13a-methyl-4,9-go-nadien-3-on], in test [1], the “Dosierung für voll abortive / maximale abortauslösende (antigestagene) Wirkung” value is recorded as ≥ 1,0 mg/d and the Abortrate was 4/4. For the same compound, the “Prozentsatz kompletter Aborte” value in test [2] is on record as 35,4%.
For `CN(C)c1ccc([C@H]2C[C@]3(C)[C@@H](CC[C@]3(O)CCCO)[C@@H]3CCC4=CC(=O)CCC4=C32)cc1` [C, 11β-(4-Dimethylaminophenyl)-17α-hydroxy-17ß-(3-hydroxypropyl)-13a-methyl-4,9-go-nadien-3-on] the same measures were ≥ 1,0 mg/d, 4/4 and 52,3%.
